# Numbered stars: 1 amine (or outer) side, 2 acyl side, 3 side chain; on linkers, the order of the positions; unused ones are H or OH. Bridge positions count the residues as written; N and C are the ends. Square brackets hold non-standard residues; d marks the D form. Peptide text beside a SMILES is read from it. I, II: the chains in the order shown. 1Nal = N[C@@H](Cc1cccc2ccccc12)C(=O)O; 2Nal = N[C@@H](Cc1ccc2ccccc2c1)C(=O)O; Diglycolyl = O=C(COCC(=O)[*:2])[*:1]; NMeR = CN[C@@H](CCCNC(=N)N)C(=O)O; Tic = O=C(O)[C@@H]1Cc2ccccc2CN1; Pen = CC(C)(S)[C@H](N)C(=O)O
# Target: α4β7 (Homo sapiens, UniProt P13612+P26010)
# Assay: α4β7-MAdCAM Cell Adhesion Assay (RPMI 8866 human cells)
# Assay type: cell-based
# Parameters: host or cells: RPMI 8866 human B lymphoblastoid cells
# Conditions: Table 3-B, Potency (α4β7); range classes; read-out: α4β7 cell (Hu) IC50
# Summary of the method: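 Adhesion read-out: MTT absorbance at 570 nm minus no-cell wells, after three washes. Plates coated with rh MAdCAM-1/Fc received peptide dilutions plus 200,000 RPMI 8866 cells in Mn2+ (1 mM)-supplemented DMEM, 0.1% BSA, HEPES pH 7, incubated 30-45 min, 37 °C.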
# α4β7, sequence (P13612 34-1032): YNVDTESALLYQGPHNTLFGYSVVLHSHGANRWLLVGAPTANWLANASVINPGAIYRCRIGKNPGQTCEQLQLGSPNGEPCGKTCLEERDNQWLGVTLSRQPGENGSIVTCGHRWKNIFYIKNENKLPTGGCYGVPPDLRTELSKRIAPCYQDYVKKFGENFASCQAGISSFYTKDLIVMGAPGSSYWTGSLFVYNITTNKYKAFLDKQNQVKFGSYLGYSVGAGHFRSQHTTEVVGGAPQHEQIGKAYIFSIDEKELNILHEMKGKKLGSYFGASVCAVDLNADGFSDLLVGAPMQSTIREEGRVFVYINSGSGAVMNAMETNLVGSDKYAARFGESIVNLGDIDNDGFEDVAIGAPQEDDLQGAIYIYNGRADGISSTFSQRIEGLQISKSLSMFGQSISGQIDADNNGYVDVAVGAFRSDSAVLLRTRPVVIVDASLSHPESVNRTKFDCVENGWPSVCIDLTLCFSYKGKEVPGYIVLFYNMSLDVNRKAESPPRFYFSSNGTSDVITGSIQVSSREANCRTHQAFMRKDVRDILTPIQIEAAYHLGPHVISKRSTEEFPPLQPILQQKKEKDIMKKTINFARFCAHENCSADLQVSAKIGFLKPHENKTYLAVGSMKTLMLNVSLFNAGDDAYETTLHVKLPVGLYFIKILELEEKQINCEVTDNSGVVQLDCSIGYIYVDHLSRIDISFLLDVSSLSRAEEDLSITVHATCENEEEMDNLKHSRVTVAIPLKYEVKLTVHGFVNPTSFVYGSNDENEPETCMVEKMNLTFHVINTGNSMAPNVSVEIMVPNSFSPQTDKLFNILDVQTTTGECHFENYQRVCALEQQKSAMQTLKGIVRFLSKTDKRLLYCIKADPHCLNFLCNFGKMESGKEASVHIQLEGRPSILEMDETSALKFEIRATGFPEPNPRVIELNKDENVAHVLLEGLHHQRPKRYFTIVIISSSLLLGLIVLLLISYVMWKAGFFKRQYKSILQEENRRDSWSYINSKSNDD
# α4β7, sequence (P26010 20-798): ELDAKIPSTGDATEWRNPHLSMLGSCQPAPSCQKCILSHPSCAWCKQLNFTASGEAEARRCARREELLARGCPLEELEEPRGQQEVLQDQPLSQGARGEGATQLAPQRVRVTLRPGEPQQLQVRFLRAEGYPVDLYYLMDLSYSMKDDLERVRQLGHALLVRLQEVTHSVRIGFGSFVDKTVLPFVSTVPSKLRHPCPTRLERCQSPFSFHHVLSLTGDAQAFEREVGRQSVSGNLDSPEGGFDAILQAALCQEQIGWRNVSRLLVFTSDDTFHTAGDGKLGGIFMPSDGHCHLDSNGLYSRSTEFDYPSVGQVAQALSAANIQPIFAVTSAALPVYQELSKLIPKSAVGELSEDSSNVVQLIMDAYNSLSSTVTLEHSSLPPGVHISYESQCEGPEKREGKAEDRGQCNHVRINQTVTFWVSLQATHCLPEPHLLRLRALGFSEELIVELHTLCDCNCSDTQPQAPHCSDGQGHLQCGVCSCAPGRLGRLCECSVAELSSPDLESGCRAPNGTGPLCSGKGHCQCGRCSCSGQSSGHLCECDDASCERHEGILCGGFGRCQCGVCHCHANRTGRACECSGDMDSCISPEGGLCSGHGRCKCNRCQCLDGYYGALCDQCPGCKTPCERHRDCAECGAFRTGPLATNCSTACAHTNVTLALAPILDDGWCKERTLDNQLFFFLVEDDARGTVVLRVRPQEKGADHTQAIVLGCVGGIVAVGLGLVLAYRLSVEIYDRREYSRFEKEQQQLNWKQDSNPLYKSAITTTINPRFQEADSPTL
row,Structure (SMILES),IC50 [nM]
1,"CC(=O)N[C@@H]1C(=O)N(C)[C@@H](CCCNC(=N)N)C(=O)N[C@@H](CO)C(=O)N[C@@H](CC(=O)O)C(=O)N[C@@H]([C@@H](C)O)C(=O)N[C@@H](CC(C)C)C(=O)N[C@H](C(=O)N[C@@H](Cc2cccc3ccccc23)C(=O)N[C@H](CC(C)C)C(=O)N[C@H](CCCCNC(=O)COCC(=O)NCCCC[C@@H](NC(=O)[C@@H](CC(C)C)NC(=O)[C@H](Cc2cccc3ccccc23)NC(=O)[C@H]2NC(=O)[C@H](CC(C)C)NC(=O)[C@H]([C@@H](C)O)NC(=O)[C@H](CC(=O)O)NC(=O)[C@H](CO)NC(=O)[C@H](CCCNC(=N)N)N(C)C(=O)[C@@H](NC(C)=O)C(C)(C)SSC2(C)C)C(N)=O)C(N)=O)C(C)(C)SSC1(C)C [compound 113] (I: Ac-[Pen][NMeR]SDTL[Pen][1Nal][dL][dK]-NH2 / II: Ac-[Pen][NMeR]SDTL[Pen][1Nal][dL][dK]-NH2; disulfide I:1-I:7, II:1-II:7; linker I:10-II:10 via Diglycolyl)",500 to 1000
2,"CC(=O)N[C@@H]1C(=O)N(C)[C@@H](CCCNC(=N)N)C(=O)N[C@@H](CO)C(=O)N[C@@H](CC(=O)O)C(=O)N[C@@H]([C@@H](C)O)C(=O)N[C@@H](CC(C)C)C(=O)N[C@H](C(=O)N[C@@H](Cc2cccc3ccccc23)C(=O)N[C@H](CCCNC(=N)N)C(=O)N[C@H](CCCCNC(=O)COCC(=O)NCCCC[C@@H](NC(=O)[C@@H](CCCNC(=N)N)NC(=O)[C@H](Cc2cccc3ccccc23)NC(=O)[C@H]2NC(=O)[C@H](CC(C)C)NC(=O)[C@H]([C@@H](C)O)NC(=O)[C@H](CC(=O)O)NC(=O)[C@H](CO)NC(=O)[C@H](CCCNC(=N)N)N(C)C(=O)[C@@H](NC(C)=O)C(C)(C)SSC2(C)C)C(N)=O)C(N)=O)C(C)(C)SSC1(C)C [compound 114] (I: Ac-[Pen][NMeR]SDTL[Pen][1Nal][dR][dK]-NH2 / II: Ac-[Pen][NMeR]SDTL[Pen][1Nal][dR][dK]-NH2; disulfide I:1-I:7, II:1-II:7; linker I:10-II:10 via Diglycolyl)",100 to 500
3,"CC(=O)N[C@@H]1C(=O)N(C)[C@@H](CCCNC(=N)N)C(=O)N[C@@H](CO)C(=O)N[C@@H](CC(=O)O)C(=O)N[C@@H]([C@@H](C)O)C(=O)N[C@@H](CC(C)C)C(=O)N[C@H](C(=O)N[C@@H](Cc2cccc3ccccc23)C(=O)N2Cc3ccccc3C[C@H]2C(=O)N[C@H](CCCCNC(=O)COCC(=O)NCCCC[C@@H](NC(=O)[C@@H]2Cc3ccccc3CN2C(=O)[C@H](Cc2cccc3ccccc23)NC(=O)[C@H]2NC(=O)[C@H](CC(C)C)NC(=O)[C@H]([C@@H](C)O)NC(=O)[C@H](CC(=O)O)NC(=O)[C@H](CO)NC(=O)[C@H](CCCNC(=N)N)N(C)C(=O)[C@@H](NC(C)=O)C(C)(C)SSC2(C)C)C(N)=O)C(N)=O)C(C)(C)SSC1(C)C [compound 115] (I: Ac-[Pen][NMeR]SDTL[Pen][1Nal][Tic][dK]-NH2 / II: Ac-[Pen][NMeR]SDTL[Pen][1Nal][Tic][dK]-NH2; disulfide I:1-I:7, II:1-II:7; linker I:10-II:10 via Diglycolyl)",100 to 500
4,"CC(=O)N[C@@H]1C(=O)N(C)[C@@H](CCCNC(=N)N)C(=O)N[C@@H](CO)C(=O)N[C@@H](CC(=O)O)C(=O)N[C@@H]([C@@H](C)O)C(=O)N[C@@H](CC(C)C)C(=O)N[C@H](C(=O)N[C@@H](Cc2cccc3ccccc23)C(=O)N[C@@H](C(=O)N[C@H](CCCCNC(=O)COCC(=O)NCCCC[C@@H](NC(=O)[C@H](NC(=O)[C@H](Cc2cccc3ccccc23)NC(=O)[C@H]2NC(=O)[C@H](CC(C)C)NC(=O)[C@H]([C@@H](C)O)NC(=O)[C@H](CC(=O)O)NC(=O)[C@H](CO)NC(=O)[C@H](CCCNC(=N)N)N(C)C(=O)[C@@H](NC(C)=O)C(C)(C)SSC2(C)C)[C@H](C)O)C(N)=O)C(N)=O)[C@H](C)O)C(C)(C)SSC1(C)C [compound 116] (I: Ac-[Pen][NMeR]SDTL[Pen][1Nal][dT][dK]-NH2 / II: Ac-[Pen][NMeR]SDTL[Pen][1Nal][dT][dK]-NH2; disulfide I:1-I:7, II:1-II:7; linker I:10-II:10 via Diglycolyl)",50 to 100
5,"CC(=O)N[C@@H]1C(=O)N(C)[C@@H](CCCNC(=N)N)C(=O)N[C@@H](CO)C(=O)N[C@@H](CC(=O)O)C(=O)N[C@@H]([C@@H](C)O)C(=O)N[C@@H](CC(C)C)C(=O)N[C@H](C(=O)N[C@@H](Cc2ccc3ccccc3c2)C(=O)N[C@H](Cc2ccccc2)C(=O)N[C@H](CCCCNC(=O)COCC(=O)NCCCC[C@@H](NC(=O)[C@@H](Cc2ccccc2)NC(=O)[C@H](Cc2ccc3ccccc3c2)NC(=O)[C@H]2NC(=O)[C@H](CC(C)C)NC(=O)[C@H]([C@@H](C)O)NC(=O)[C@H](CC(=O)O)NC(=O)[C@H](CO)NC(=O)[C@H](CCCNC(=N)N)N(C)C(=O)[C@@H](NC(C)=O)C(C)(C)SSC2(C)C)C(N)=O)C(N)=O)C(C)(C)SSC1(C)C [compound 117] (I: Ac-[Pen][NMeR]SDTL[Pen][2Nal][dF][dK]-NH2 / II: Ac-[Pen][NMeR]SDTL[Pen][2Nal][dF][dK]-NH2; disulfide I:1-I:7, II:1-II:7; linker I:10-II:10 via Diglycolyl)",100 to 500
6,"CC(=O)N[C@@H]1C(=O)N(C)[C@@H](CCCNC(=N)N)C(=O)N[C@@H](CO)C(=O)N[C@@H](CC(=O)O)C(=O)N[C@@H]([C@@H](C)O)C(=O)N[C@@H](CC(C)C)C(=O)N[C@H](C(=O)N[C@@H](Cc2ccc3ccccc3c2)C(=O)N[C@H](Cc2c[nH]cn2)C(=O)N[C@H](CCCCNC(=O)COCC(=O)NCCCC[C@@H](NC(=O)[C@@H](Cc2c[nH]cn2)NC(=O)[C@H](Cc2ccc3ccccc3c2)NC(=O)[C@H]2NC(=O)[C@H](CC(C)C)NC(=O)[C@H]([C@@H](C)O)NC(=O)[C@H](CC(=O)O)NC(=O)[C@H](CO)NC(=O)[C@H](CCCNC(=N)N)N(C)C(=O)[C@@H](NC(C)=O)C(C)(C)SSC2(C)C)C(N)=O)C(N)=O)C(C)(C)SSC1(C)C [compound 118] (I: Ac-[Pen][NMeR]SDTL[Pen][2Nal][dH][dK]-NH2 / II: Ac-[Pen][NMeR]SDTL[Pen][2Nal][dH][dK]-NH2; disulfide I:1-I:7, II:1-II:7; linker I:10-II:10 via Diglycolyl)",25 to 50
7,"CC(=O)N[C@@H]1C(=O)N(C)[C@@H](CCCNC(=N)N)C(=O)N[C@@H](CO)C(=O)N[C@@H](CC(=O)O)C(=O)N[C@@H]([C@@H](C)O)C(=O)N[C@@H](CC(C)C)C(=O)N[C@H](C(=O)N[C@@H](Cc2ccc3ccccc3c2)C(=O)N[C@H](CC(C)C)C(=O)N[C@H](CCCCNC(=O)COCC(=O)NCCCC[C@@H](NC(=O)[C@@H](CC(C)C)NC(=O)[C@H](Cc2ccc3ccccc3c2)NC(=O)[C@H]2NC(=O)[C@H](CC(C)C)NC(=O)[C@H]([C@@H](C)O)NC(=O)[C@H](CC(=O)O)NC(=O)[C@H](CO)NC(=O)[C@H](CCCNC(=N)N)N(C)C(=O)[C@@H](NC(C)=O)C(C)(C)SSC2(C)C)C(N)=O)C(N)=O)C(C)(C)SSC1(C)C [compound 119] (I: Ac-[Pen][NMeR]SDTL[Pen][2Nal][dL][dK]-NH2 / II: Ac-[Pen][NMeR]SDTL[Pen][2Nal][dL][dK]-NH2; disulfide I:1-I:7, II:1-II:7; linker I:10-II:10 via Diglycolyl)",500 to 1000
8,"CC(=O)N[C@@H]1C(=O)N(C)[C@@H](CCCNC(=N)N)C(=O)N[C@@H](CO)C(=O)N[C@@H](CC(=O)O)C(=O)N[C@@H]([C@@H](C)O)C(=O)N[C@@H](CC(C)C)C(=O)N[C@H](C(=O)N[C@@H](Cc2ccc3ccccc3c2)C(=O)N[C@H](CCCNC(=N)N)C(=O)N[C@H](CCCCNC(=O)COCC(=O)NCCCC[C@@H](NC(=O)[C@@H](CCCNC(=N)N)NC(=O)[C@H](Cc2ccc3ccccc3c2)NC(=O)[C@H]2NC(=O)[C@H](CC(C)C)NC(=O)[C@H]([C@@H](C)O)NC(=O)[C@H](CC(=O)O)NC(=O)[C@H](CO)NC(=O)[C@H](CCCNC(=N)N)N(C)C(=O)[C@@H](NC(C)=O)C(C)(C)SSC2(C)C)C(N)=O)C(N)=O)C(C)(C)SSC1(C)C [compound 120] (I: Ac-[Pen][NMeR]SDTL[Pen][2Nal][dR][dK]-NH2 / II: Ac-[Pen][NMeR]SDTL[Pen][2Nal][dR][dK]-NH2; disulfide I:1-I:7, II:1-II:7; linker I:10-II:10 via Diglycolyl)",1000 to 10000
9,"CC(=O)N[C@@H]1C(=O)N(C)[C@@H](CCCNC(=N)N)C(=O)N[C@@H](CO)C(=O)N[C@@H](CC(=O)O)C(=O)N[C@@H]([C@@H](C)O)C(=O)N[C@@H](CC(C)C)C(=O)N[C@H](C(=O)N[C@@H](Cc2ccc3ccccc3c2)C(=O)N2Cc3ccccc3C[C@H]2C(=O)N[C@H](CCCCNC(=O)COCC(=O)NCCCC[C@@H](NC(=O)[C@@H]2Cc3ccccc3CN2C(=O)[C@H](Cc2ccc3ccccc3c2)NC(=O)[C@H]2NC(=O)[C@H](CC(C)C)NC(=O)[C@H]([C@@H](C)O)NC(=O)[C@H](CC(=O)O)NC(=O)[C@H](CO)NC(=O)[C@H](CCCNC(=N)N)N(C)C(=O)[C@@H](NC(C)=O)C(C)(C)SSC2(C)C)C(N)=O)C(N)=O)C(C)(C)SSC1(C)C [compound 121] (I: Ac-[Pen][NMeR]SDTL[Pen][2Nal][Tic][dK]-NH2 / II: Ac-[Pen][NMeR]SDTL[Pen][2Nal][Tic][dK]-NH2; disulfide I:1-I:7, II:1-II:7; linker I:10-II:10 via Diglycolyl)",100 to 500
10,"CC(=O)N[C@@H]1C(=O)N(C)[C@@H](CCCNC(=N)N)C(=O)N[C@@H](CO)C(=O)N[C@@H](CC(=O)O)C(=O)N[C@@H]([C@@H](C)O)C(=O)N[C@@H](CC(C)C)C(=O)N[C@H](C(=O)N[C@@H](Cc2ccc(O)cc2)C(=O)N[C@H](CCC(=O)O)C(=O)N[C@H](CCCCNC(=O)COCC(=O)NCCCC[C@@H](NC(=O)[C@@H](CCC(=O)O)NC(=O)[C@H](Cc2ccc(O)cc2)NC(=O)[C@H]2NC(=O)[C@H](CC(C)C)NC(=O)[C@H]([C@@H](C)O)NC(=O)[C@H](CC(=O)O)NC(=O)[C@H](CO)NC(=O)[C@H](CCCNC(=N)N)N(C)C(=O)[C@@H](NC(C)=O)C(C)(C)SSC2(C)C)C(N)=O)C(N)=O)C(C)(C)SSC1(C)C [compound 123] (I: Ac-[Pen][NMeR]SDTL[Pen]Y[dE][dK]-NH2 / II: Ac-[Pen][NMeR]SDTL[Pen]Y[dE][dK]-NH2; disulfide I:1-I:7, II:1-II:7; linker I:10-II:10 via Diglycolyl)",50 to 100

# From patent publication US9809623B2, “α4β7 peptide monomer and dimer antagonists” (Protagonist Therapeutics, Inc., priority 2014, dated 2017)
